# Results published in patent US12128111B2, “Glyco-metal-organic frameworks-based hepatic targeted therapeutic drug and preparation method thereof” (Jiangnan University, priority 2019, dated 2024).
# Key:
# [1] = tested on: Huh7 cells; assay: Calcein-AM/PI live and dead staining, in vitro therapeutic effect; type: cell-based, human; conditions: 10 μg/mL DOX, 60 μg/mL PCN-224, 70 μg/mL DOX@PCN-224 or DOX@Gal-PCN-224
# Description: (§1) The in vitro therapeutic effect of the inorganic nanomaterial DOX@Gal-PCN-224 was detected by the live and death staining method and the corresponding MTT experiment.
# (§2) Human hepatoma cells Huh7 were inoculated in a laser confocal culture dish (35 mm) at the density of 8×10^4 per well. After culturing for 24 hours, the cells were incubated with a medium containing 10 μg/mL DOX, 60 μg/mL PCN-224, 70 μg/mL DOX@PCN-224 (with the drug loading ratio of 14.2, and the DOX content of about 10 μg/mL) or 70 μg/mL DOX@Gal-PCN-224 (with the drug loading ratio of 14.2, and the DOX content of about 10 μg/mL) respectively for 24 hours. Then the light group was irradiated with a 660 nm light source for 10 min. After incubating for 24 hours, Calcein-AM/PI live and dead co-staining was performed. Finally, the cells were observed under the confocal laser. After the same treatment, the therapeutic effect of each group was further quantified by the MTT experiment.
# [2] = tested on: Huh7 cells; assay: MTT in vitro therapeutic effect; type: cell-based, human; conditions: 10 μg/mL DOX, 60 μg/mL PCN-224, 70 μg/mL DOX@PCN-224 or DOX@Gal-PCN-224
# Description: as §1, §2
# [3] = tested on: subcutaneous solid tumor; assay: Inhibition of tumor growth in subcutaneous solid tumor mouse models; type: in vivo, BALB/c nude mice; conditions: no laser; tail vein, DOX 2 mg/kg, PCN-224 12 mg/kg, DOX@PCN-224 and DOX@Gal-PCN-224 14 mg/kg; last day (day 21) versus saline
# Description: To construct subcutaneous solid tumor mouse models, male BALB/c nude mice with the average weight of 14-17 g at the age of 4 weeks were inoculated with 0.1 ml of 6×10^6 cells/ml PBS at the right gluteus. After four weeks, when the tumor size exceeded 200 mm^3 (volume=0.52×tumor length×tumor width^2), the mice were divided into 2 groups with 5 mice in each group. The DOX@PCN-224-RhB (0.1 mL 0.4 mg/mL) and DOX@Gal-PCN-224-RhB (0.1 mL 0.4 mg/ml) were injected into the tail vein respectively. The fluorescence signal of RhB was detected by a small animal imager (Bruker In Vivo Xtreme II) at set time points (3, 6, 12, 24, 48 hours). Then the mice were sacrificed, the heart, liver, spleen, lung and kidney were isolated, and the RhB fluorescence signal of each organ was detected.
# When the subcutaneous tumor size of the mice exceeded 50 mm^3, the mice were randomly divided into 9 groups with 5 mice in each group: (1) saline, (2) free DOX saline (2 mg/kg), (3) free DOX+660 nm laser (2 mg/kg), (4) PCN-224 (12 mg/kg), (5) PCN-224+660 nm laser (12 mg/kg), (6) DOX@PCN-224 (14 mg/kg), (7) DOX@PCN-224+660 nm laser (14 mg/kg), (8) DOX@Gal-PCN-224 (14 mg/kg), and (9) DOX@Gal-PCN-224+660 nm laser (14 mg/kg). […] At the specified time points (days 3, 6, 9, 12, 15, 18, and 21), the tumor volume and mouse body weight of the experimental groups were measured. […]
smiles,measurement,setting,value
"COc1cccc2c1C(=O)c1c(O)c3c(c(O)c1C2=O)C[C@@](O)(C(=O)CO)C[C@@H]3O[C@H]1C[C@H](N)[C@H](O)[C@H](C)O1 [DOX, doxorubicin]","live and dead staining (red fluorescence = dead cells, apoptosis)","[1]; Huh7, 660 nm light 10 min",only sporadic red fluorescence
same,"live and dead staining (red fluorescence = dead cells, apoptosis)","[1]; Huh7, no light",only sporadic red fluorescence
same,Cell viability,"[2]; Huh7, + 660 nm laser 10 min",79%
same,Cell viability,"[2]; Huh7, no laser",82%
same,Tumor inhibition efficiency,[3],49.8%
